Test results: patent publication US20130158075A1, “HETEROCYCLIC COMPOUNDS AS DGAT1 INHIBITORS” (PIRAMAL ENTERPRISES LIMITED, priority 2010, published 2013)
Counter-ions that a name gives are not always drawn.

Target: T1, hDGAT1 (Homo sapiens, UniProt O75907)
T1 construct: made in house; host or cells: Sf9 insect cells (baculovirus); microsomal fraction
T1 sequence (O75907 1-488): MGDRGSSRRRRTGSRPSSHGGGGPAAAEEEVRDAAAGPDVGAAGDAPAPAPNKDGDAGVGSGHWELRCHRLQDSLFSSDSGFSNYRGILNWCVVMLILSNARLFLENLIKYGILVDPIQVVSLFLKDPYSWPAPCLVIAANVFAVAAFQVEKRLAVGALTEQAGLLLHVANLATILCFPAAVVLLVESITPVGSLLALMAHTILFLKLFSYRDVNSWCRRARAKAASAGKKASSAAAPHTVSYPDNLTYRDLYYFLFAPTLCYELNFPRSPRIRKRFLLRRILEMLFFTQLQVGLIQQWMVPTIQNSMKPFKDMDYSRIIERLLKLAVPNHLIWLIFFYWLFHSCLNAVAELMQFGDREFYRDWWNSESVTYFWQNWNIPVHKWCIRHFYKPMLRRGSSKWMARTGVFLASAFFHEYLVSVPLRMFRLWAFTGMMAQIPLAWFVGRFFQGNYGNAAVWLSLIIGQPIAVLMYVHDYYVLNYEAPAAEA
Assay: In-vitro DGAT1 assay with hDGAT1 microsomes from Sf9 cells (14C oleoyl CoA, scintillation counting)
Type: biochemical
Settings: for Percentage inhibition of hDGAT1: at 1 μM; for inhibition at 1 µM: read-out: Percentage inhibition of hDGAT1
Outline: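 Radiolabelled triglyceride formation was measured: heptane extracts were scintillation-counted after a 10-min, 37 °C reaction stopped with alkaline ethanol. Enzyme was human DGAT1 in baculovirus-infected Sf9 microsomal membranes; substrates were 14C oleoyl-CoA plus dioleoylglycerol. Runs were duplicated, and inhibition (%) was related to nM compound concentration.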

SMILES | Percentage inhibition of hDGAT1 | inhibition at 1 µM [%]
CC(C)(CCc1ncc(-c2ccc(NC(=O)Nc3cc(F)c(F)cc3F)cc2)s1)C(=O)[O-].[Na+] [Example 237A, Sodium salt of 2,2-dimethyl-4-(5-(4-(3-(2,4,5-trifluorophenyl)ureido)phenyl)thiazol-2-yl)butanoate] | ++ (>50 % Inhibition) | 
CC(C)(CCc1ncc(-c2ccc(NC(=O)N3CCCCC3)cc2)s1)C(=O)O [Example 239, 2,2-Dimethyl-4-(5-(4-(piperidine-1-carboxamido)phenyl)thiazol-2-yl)butanoic acid] |  | 20 to 50
CC(C)(CCc1ncc(-c2ccc(NC(=O)N3CCOCC3)cc2)s1)C(=O)O [Example 241, 2,2-Dimethyl-4-(5-(4-(morpholine-4-carboxamido)phenyl)thiazol-2-yl)butanoic acid] |  | 20 to 50
CN1CCN(C(=O)Nc2ccc(-c3cnc(CCC(C)(C)C(=O)O)s3)cc2)CC1 [Example 243, 2,2-Dimethyl-4-(5-(4-(4-methylpiperazine-1-carboxamido)phenyl)thiazol-2-yl)butanoic acid hydrochloride] |  | 20 to 50
CC(C)(CCc1ncc(-c2ccc(NC(=O)Nc3ccc4c(c3)OCCO4)cc2)s1)C(=O)O [Example 245, 4-(5-(4-(3-(2,3-Dihydrobenzo[b][1,4]dioxin-6-yl)ureido)phenyl)thiazol-2-yl)-2,2-dimethylbutanoic acid] |  | > 50
CC(C)(CCc1ncc(-c2ccc(NC(=O)Nc3nnn[nH]3)cc2)s1)C(=O)O [Example 247, 4-(5-(4-(3-(1H-tetrazol-5-yl)ureido)phenyl)thiazol-2-yl)-2,2-dimethylbutanoic acid] |  | 20 to 50
COCCNC(=O)Nc1ccc(-c2cnc(CCC(C)(C)C(=O)O)s2)cc1 [Example 249, 4-(5-(4-(3-(2-methoxyethyl)ureido)phenyl)thiazol-2-yl)-2,2-dimethylbutanoic acid] |  | 20 to 50
CC(C)(CCc1ncc(-c2ccc(NC(=O)NC3Cc4ccccc4C3)cc2)s1)C(=O)O [Example 251, 4-(5-(4-(3-(2,3-Dihydro-1H-inden-2-yl)ureido)phenyl)thiazol-2-yl)-2,2-dimethyl butanoic acid] |  | > 50
CC(C)(CCc1ncc(-c2ccc(NC(=O)Nc3cc(F)c(F)c(F)c3)cc2)s1)C(=O)O [Example 255, 2,2-dimethyl-4-(5-(4-(3-(3,4,5-trifluorophenyl)ureido)phenyl)thiazol-2-yl)butanoic acid] |  | > 50
CC(C)(CCc1ncc(-c2ccc(NC(=O)Nc3cc(F)c(F)c(F)c3)cc2)s1)C(=O)[O-].[Na+] [Example 255A, Sodium salt of 2,2-dimethyl-4-(5-(4-(3-(3,4,5-trifluorophenyl)ureido)phenyl)thiazol-2-yl)butanoate] | ++ (>50 % Inhibition) | 
CC(C)(CCc1ncc(-c2ccc(NC(=O)NCCN3CCCCC3)cc2)s1)C(=O)O [Example 257, 2,2-Dimethyl-4-(5-(4-(3-(2-(piperidin-1-yl)ethyl)ureido)phenyl)thiazol-2-yl)butanoic acid] |  | 20 to 50
CC(C)(CCc1ncc(-c2ccc(NC(=O)NCc3ccccc3)cc2)s1)C(=O)O [Example 259, 4-(5-(4-(3-Benzylureido)phenyl)thiazol-2-yl)-2,2-dimethylbutanoic acid] |  | > 50
CC(C)(CCc1ncc(-c2ccc(NC(=O)N3CCC(F)(F)CC3)cc2)s1)C(=O)O [Example 261, 4-(5-(4-(4,4-Difluoropiperidine-1-carboxamido)phenyl)thiazol-2-yl)-2,2-dimethyl butanoic acid] |  | 20 to 50
CC(C)(CCc1ncc(-c2ccc(NC(=O)N3CCC(c4ccccc4)CC3)cc2)s1)C(=O)O [Example 263, 2,2-Dimethyl-4-(5-(4-(4-phenylpiperidine-1-carboxamido)phenyl)thiazol-2-yl)butanoic acid] |  | > 50
CC(C)(CCc1ncc(-c2ccc(NC(=O)NCc3ccc(C#N)cc3)cc2)s1)C(=O)O [Example 265, 4-(5-(4-(3-(4-Cyanobenzyl)ureido)phenyl)thiazol-2-yl)-2,2-dimethylbutanoic acid] |  | 20 to 50
O=C(O)CCCc1nnc(-c2ccc(NC(=O)Nc3cccc(C(F)(F)F)c3)cc2)s1 [Example 278, 4-(5-(4-(3-(3-(Trifluoromethyl)phenyl)ureido)phenyl)-1,3,4-thiadiazol-2-yl)butanoic acid] |  | > 50
O=C(O)CCCc1nnc(-c2ccc(NC(=O)Nc3ccccc3Cl)cc2)s1 [Example 280, 4-(5-(4-(3-(2-Chlorophenyl)ureido)phenyl)-1,3,4-thiadiazol-2-yl)butanoic acid] |  | > 50

SMILES | Percentage inhibition of hDGAT1 | inhibition at 1 µM [%]
Cc1ccc(NC(=O)Nc2ccc(-c3nnc(CCCC(=O)O)s3)cc2)cc1 [Example 282, 4-(5-(4-(3-(p-Tolyl)ureido)phenyl)-1,3,4-thiadiazol-2-yl)butanoic acid] |  | > 50
O=C(O)CCCc1nnc(-c2ccc(NC(=O)Nc3ccc(F)cc3F)cc2)s1 [Example 284, 4-(5-(4-(3-(2,4-Difluorophenyl)ureido)phenyl)-1,3,4-thiadiazol-2-yl)butanoic acid] |  | > 50
O=C(O)CCCc1nnc(-c2ccc(NC(=O)Nc3ccc(Cl)cc3Oc3ccccc3)cc2)s1 [Example 286, 4-(5-(4-(3-(4-Chloro-2-phenoxyphenyl)ureido)phenyl)-1,3,4-thiadiazol-2-yl)butanoic acid] |  | > 50
CC(C)(C)c1ccc(C(=O)Nc2ccc(-c3nnc(CCCC(=O)O)s3)cc2)cc1 [Example 288, 4-(5-(4-(4-(tert-Butyl)benzamido)phenyl)-1,3,4-thiadiazol-2-yl)butanoic acid] |  | 20 to 50
O=C(O)CCCc1nnc(-c2ccc(NC(=O)c3ccc(-c4ccccc4)cc3)cc2)s1 [Example 290, 4-(5-(4-([1,1′-Biphenyl]-4-ylcarboxamido)phenyl)-1,3,4-thiadiazol-2-yl)butanoic acid] | + (20-50% Inhibition) | 
O=C(O)CCCc1nnc(-c2ccc(NC(=O)c3ccc(OC(F)(F)F)cc3)cc2)s1 [Example 292, 4-(5-(4-(4-(Trifluoromethoxy)benzamido)phenyl)-1,3,4-thiadiazol-2-yl)butanoic acid] |  | 20 to 50
O=C(O)CCCc1nnc(-c2ccc(NC(=O)Nc3ccccc3Cl)cc2)o1 [Example 296, 4-(5-(4-(3-(2-Chlorophenyl)ureido)phenyl)-1,3,4-oxadiazol-2-yl)butanoic acid] |  | 20 to 50
O=C(O)CCCc1nnc(-c2ccc(NC(=O)Nc3ccc(F)cc3F)cc2)o1 [Example 300, 4-(5-(4-(3-(2,4-Difluorophenyl)ureido)phenyl)-1,3,4-oxadiazol-2-yl)butanoic acid] |  | 20 to 50
O=C(O)CCCc1nnc(-c2ccc(NC(=O)Nc3cccc(C(F)(F)F)c3)cc2)o1 [Example 302, 4-(5-(4-(3-(3-(Trifluoromethyl)phenyl)ureido)phenyl)-1,3,4-oxadiazol-2-yl)butanoic acid] |  | 20 to 50
O=C(Nc1ccc(-c2ccn(C3CCC(C(=O)O)CC3)n2)cc1)Nc1cccc(C(F)(F)F)c1 (stereo not shown) [Example 315, 4-(3-(4-(3-(3-(Trifluoromethyl)phenyl)ureido)phenyl)-1H-pyrazol-1-yl)cyclohexanecarboxylic acid] |  | 20 to 50
O=C(O)CCCc1nc(-c2ccc(NC(=O)Nc3ccc(Cl)cc3Oc3ccccc3)cc2)no1 [Example 322, 4-(3-(4-(3-(4-Chloro-2-phenoxyphenyl)ureido)phenyl)-1,2,4-oxadiazol-5-yl) butanoic acid] |  | > 50
O=C(O)CC1CCC(c2ncc(-c3ccc(NC(=O)Nc4ccccc4Cl)cc3)s2)CC1 (stereo not shown) [Example 346, 2-(4-(5-(4-(3-(2-Chlorophenyl)ureido)phenyl)thiazol-2-yl)cyclohexyl)acetic acid] |  | > 50
O=C(O)CC1CCC(c2ncc(-c3ccc(NC(=O)Nc4ccccc4F)cc3)s2)CC1 (stereo not shown) [Example 348, 2-(4-(5-(4-(3-(2-Fluorophenyl)ureido)phenyl)thiazol-2-yl)cyclohexyl)acetic acid] |  | > 50
O=C(O)CC1CCC(c2ncc(-c3ccc(NC(=O)Nc4cc(F)cc(F)c4)cc3)s2)CC1 (stereo not shown) [Example 356, 2-(4-(5-(4-(3-(3,5-Difluorophenyl)ureido)phenyl)thiazol-2-yl)cyclohexyl)acetic acid] |  | > 50
O=C(O)CC1CCC(c2ncc(-c3ccc(NC(=O)Nc4cc(F)c(F)cc4F)cc3)s2)CC1 (stereo not shown) [Example 358, 2-(4-(5-(4-(3-(2,4,5-Trifluorophenyl)ureido)phenyl)thiazol-2-yl)cyclohexyl)acetic acid] |  | > 50
O=C(O)CC1CCC(c2ncc(-c3ccc(NC(=O)Nc4c(F)cc(F)cc4F)cc3)s2)CC1 (stereo not shown) [Example 360, 2-(4-(5-(4-(3-(2,4,6-Trifluorophenyl)ureido)phenyl)thiazol-2-yl)cyclohexyl)acetic acid] |  | > 50
O=C(O)CC1CCC(c2ncc(-c3ccc(NC(=O)Nc4ccc(F)cc4F)cc3)s2)CC1 (stereo not shown) [Example 362, 2-(4-(5-(4-(3-(2,4-Difluorophenyl)ureido)phenyl)thiazol-2-yl)cyclohexyl)acetic acid] |  | > 50
